Results on two molecules are retold here after patent US7714014B2, “Targeting GLI proteins in human cancer by small molecules” (The Regents of the University of California, priority 2005, dated 2010).

The subject of one data set is H1299 (NSCLC). The data set is described as follows: Apoptosis analysis (Annexin V FITC, flow cytometry). It is filed as cell-based, human. The conditions noted are these: 3 days. As to the method:
Apoptosis was analyzed by using an Annexin V FITC Apoptosis Detection Kit (Biosource, Camarillo, Calif.), according to the manufacturer's protocol. After treatment with different small molecule compounds at various concentrations for about 3 days, cells were harvested by trypsinization, stained and immediately analyzed by flow cytometry (FACScan; Decton Dickinson, Franklin Lake, N.J.). Early apoptotic cells with exposed phosphatidylserine but intact cell membranes will bind to Annexin V-FITC, but not propidium iodide (PI). Cells in necrotic or late apoptotic stages will be labeled with both Annexin V-FITC and PI. “% apoptotic cells” or “% apoptosis” refers to the combined early and late apoptotic cells.
Flow cytometry was also used to examine apoptosis in several NSCLC cell lines after treatment with small molecule compounds of the invention.
For orientation: Flow cytometry measures light scatter and fluorescence of single cells or particles in a stream.

For data set [1], the system named is NSCLC cell lines H1299 and A549, colon cancer cell lines SW480 and HCT116. The data set is described as follows: Cell survival assay (crystal violet), initial screening. It counts as cell-based, human. The conditions noted are these: 100 μM, all cancer cell lines tested. Here is the method:
Typically, the small molecule compounds of the present invention were dissolved in DMSO at a concentration of 30 mM. The small molecule compounds were then tested under cell culture conditions at different concentrations ranging from 0, 10, 30, 50, to 100 uM. To determine cell survival after treatment, the cells were incubated with the small molecule compounds in 6-well plates for about 3 days. After removal of the cell culture medium, 1-ml of 0.5% crystal violet solution (prepared in 20% ethanol and 20% methanol) was added to stain the cells for 5 min. Then the crystal violet solution was rinsed clean with tap water. Cell survival was estimated based on the density of crystal stained plates.
Initial screening of small molecule compounds of the present invention was performed using the cell-based assays described herein. […] Two NSCLC cell lines, H1299 and A549, and two colon cancer cell lines, SW480 and HCT116, were incubated with small molecule compounds FN1-1, FN1-2, FN1-3; FN1-5 and FN2-1 at a concentration of 100 μM. DMSO was used as a control. […] This assay identified the small molecule compound FN1-5 inhibiting GLI transcription activation domain (TAF-binding domain, TAFbd), as an active hit compound.

A short description of data set [2]: Pharmacokinetic analysis in mice (i.p. injection). It counts as in vivo, mouse. As to the method: Three mice were i.p. injected in the abdomens with small molecule compounds FN1-5 at a dose of 30 mg/kg body weight. Then plasma was collected from the tail-vein of each mouse at 10 min, 2 hours, 6 hours and 24 hours after FN1-5 injection.
Similarly, the pharmacokinetic properties of small molecule compound FN1-8 were analyzed (FIG. 21B). Comparing the uptake of FN1-8 to FN1-5, the uptake of FN1-5 after i.p injection seems to be better, by about 2 fold.

For data set [3], the system named is NSCLC cells A549, H358, and H322. Kind of data set: MTS cell proliferation assay. It is filed as cell-based, human. The settings on record: 7.5 μM or 15 μM; dose-dependent, already after 1 day. From the text:
Another assay for determining the number of viable cells in proliferation or cytotoxicity assays is the MTS assay, a calorimetric method. MTS assay reagents are commercially available (Promega Corp., Madison, Wis.). The reagent contains a tetrazolium compound [3-(4,5-dimethylthiazol-2-yl)-5-(3-carboxymethoxyphenyl)-2-(4-sulfophenyl)-2H-tetrazolium, inner salt; MTS] and an electron coupling reagent (phenazine ethosulfate; PES). PES has enhanced chemical stability, which allows it to be combined with MTS to form a stable solution. The MTS tetrazolium compound (Owen.s reagent) is bioreduced by cells into a colored formazan product that is soluble in tissue culture medium. This conversion may be accomplished by NADPH or NADH produced by dehydrogenase enzymes in metabolically active cells. The quantity of formazan product as measured by the absorbance at 490 nm is directly proportional to the number of living cells in culture. Because the MTS formazan product is soluble in tissue culture medium, this assay requires fewer steps than procedures that use tetrazolium compounds such as MTT. The formazan product of MTT reduction is a crystalline precipitate that requires an additional step in the procedure to dissolve the crystals before recording absorbance readings at 570 nm. […]
For orientation: Tetrazolium assays rely on reduction of a dye to a coloured formazan, in cell work by metabolically active cells.

The next data set concerns NSCLC A549 tumor. Kind of data set: Mouse Xenograft Model (NSCLC A549). It is filed as in vivo. The settings on record: 15 mg/kg daily 2×6 days then 30 mg/kg daily 1×6 days i.p.; 43 days after inoculation. As to the method:
The small molecule compound FN1-8 was tested in vivo in the mouse xenograft model bearing human cancer cells. Briefly, female athymic nude mice strain NCRNU-M (5-10 weeks old, 20-25 grams in weight; Taconic, Germantown, N.Y.) was maintained in pathogen-free conditions. Three human cancer cell lines: NSCLC H460, melanoma LOX, (both showing Gli3 activation), and colon cancer HT29 (no Gli3 activation, as a negative control), were used. Ten mice were used in each group and injected s.c. with 3×10^6 cancer cells in the dorsal area in a volume of 100 μl. After inoculation, human cancer cells were allowed to grow in mice for 7 days to become visible tumor nodules. Animals were then injected with small molecule compound FN1-8 at a dose of 50 mg/kg body weight (1 mg/mouse per day). DMSO alone was used as control. The compounds and controls were adjusted in 40 ul volume for i.p. injection in the abdomens of the mice. One mouse was sacrificed within 1 hour after the compound injection (after 6 injections) and its blood was collected. […] Tumor size was measured every three days, and tumor volumes were calculated using width (x) and length (y) (x^2y/2, where x<y). […]
In vivo efficacy study ofFN1-8 in Mouse Xenograft Model (NSCLC A549) was also examined. […] 43 days after the initial tumor inoculation, tumors were dissected from the mice of each group and their weights were measured using a scale. […]

The structures appear in SMILES notation.

In the case of `O=C(NCCCCCO)C1C(c2ccccc2)=NN(c2ccccc2)C1c1ccccc1` (centres unmarked) [FN1-5, N-(5-Hydroxypentyl)-1,3,5-triphenyl-4,5-dihydro-pyrazole-4-carboxyamide], the “% of apoptotic cells” value with H1299 (NSCLC) (H1299, 10 μM) was 6.7%; with H1299 (NSCLC) (H1299, 100 μM), 55.9%. In data set [1], the cell killing effect entry was “dramatic cell killing effect”. The “uptake of FN1-5 relative to FN1-8” value in data set [2] (i.p. injection) is on record as “about 2 fold”. In addition, the “time of uptake into plasma” value in data set [2] (i.p., 30 mg/kg) is given as at most 10 min. Also, the “time within which plasma/serum concentration diminishes” value in data set [2] (i.p., 30 mg/kg) was at most 24 h.
With `O=C(NCCc1ccc(O)cc1)C1C(c2ccccc2)=NN(c2ccccc2)C1c1ccccc1` (centres unmarked) [FN1-8, N-(2-(4-Hydroxyphenyl)ethyl)-1,3,5-triphenyl-4,5-dihydro-pyrazole-4-carboxyamide], the “cell proliferation (MTS)” value in data set [3] is on record as “significantly inhibited cell proliferation”. In the data set on NSCLC A549 tumor, the tumor weight entry is given as “decreased”.
